Measurements reported in US11739111B2, “Manufacture of trans-[tetrachlorobis(1H-indazole)ruthenate (III)] and compositions thereof” (Bold Therapeutics, Inc., priority 2017, dated 2023).
“And” between values parts separate entries of the source, which are not always exact repeats. Identical values can stand only once.

Tests used:
Type in all cases: physicochemical
[1] = Solution stability study of IT-139 bulk solution (HPLC peak area over time); conditions: for % Peak Area Unspecified: impurities; for % Peak Area RRT 1.09 / % Peak Area RRT 1.28: impurity
Description: HPLC Method 1 Assay and identity of sodium trans-[tetrachlorobis(1H-indazole) ruthenate (III)] was determined by high pressure liquid chromatography with UV detection at 292 nm. IT-139 drug product was dissolved in water at concentration of 1 mg/mL, and 10 μL was injected onto an Agilent Zorbax SB-C18 (3 μm, 4.6×150 mm) HPLC column. Mobile phase A consisted of 0.1% trifluoroacetic acid in water and mobile phase B consisted of 0.1% trifluoroacetic acid in acetonitrile. Separation was achieved by gradient flow at 1.0 mL/minute such that mobile phase A constituting from 90% to 10% from time zero to 12 minutes, with mobile phase B constituting from 10% to 90% over 12 minutes. The gradient was then reversed from 10% mobile phase A and 90% mobile phase B to 90% A and 10% B from 12 minutes to 13 minutes. This continued until the end of the run at 15 minutes. The analyte retention time was 7.7 minutes. Sample temperature was maintained at 5° C., and column temperature was maintained at 25° C.
HPLC Method 2 Two HPLC methods are used because two different impurities co-elute using HPLC Method 1. Related substances for IT-139 drug product were determined by high pressure liquid chromatography with UV detection at 292 nm. IT-139 drug product was dissolved in water at concentration of 1 mg/mL, and 10 μL was injected onto an Agilent Zorbax SB-C18 (3 μm, 4.6×150 mm) HPLC column. Mobile phase A consisted of 0.1% trifluoroacetic acid in water and mobile phase B consisted of 0.1% trifluoroacetic acid in acetonitrile. Separation was achieved by gradient flow at 1.0 mL/minute such that mobile phase A constituted from 90% to 10% from time zero to 15 minutes, with mobile phase B constituted from 10% to 90% over 15 minutes. The gradient was held at 10% A and 90% B from 15 minutes to 19.9 minutes. The gradient was then reversed to 90% A and 10% B from 19.9 minutes to 20 minutes, and was held until the end of the run at 26 minutes. Sample temperature was maintained at 5° C., and column temperature was maintained at 25° C.
Compound from Example 5 was prepared at room temperature (20° C.) using room temperature solutions, and refrigerated (2-8° C.) using cold (2-8° C.) solutions, for a total volume of 500 mL for each. Citric acid solution was prepared by dissolving 19.2 grams of citric acid in 1 L of water. Sodium citrate solution was prepared by dissolving 29.4 grams of sodium citrate in 1 L of water. Sodium citrate solution was added to the citric acid solution until the pH was increased from 2.0 to 3.4. Mannitol solution was prepared by dissolving 13.3 g in 200 mL of water. Solutions of Formula I-b were prepared by adding 16.6 mL of citrate buffer to 400 mL water. 3.33 g sodium trans[tetrachlorobis(1H-indazole)ruthenate(III)] was added to the solution and stirred for 10 minutes. 50 mL of mannitol solution was added followed by 33.4 mL of water for a final volume of 500 mL IT-139 bulk solution. The room temperature (18-22° C.) sample was stirred using a magnetic stir plate on the laboratory bench, and the refrigerated sample was stirred using a magnetic stir plate in a refrigerator (2-8° C.). Aliquots of 100 μL were taken from each sample immediately upon dissolution (T=0) and at time points of 0.5, 1, 2, 3, 4, 5, 6, 18, 24, 32, and 48 hours. Each sample was added to 1.9 mL methanol in an HPLC vial and mixed by vortex. […] HPLC chromatograms for IT-139 samples stored refrigerated or at room temperature at the 18 hour time point are shown in FIG. 2 and FIG. 3, respectively.

[2] = Stability of Formula I-b in chloride-containing solutions versus pure water (aquation to Compound A); conditions: sodium chloride or hydrochloric acid solutions compared with pure water
[3] = Stability of the isolated cesium intermediate as dry powder; conditions: ambient conditions
Excerpt: Another aspect of the invention is the introduction of step S-2 into the preparation of Formula I-b. Step S-2 involves the preparation of a cesium intermediate, Formula I-a. […] As stated above, indazolium trans-[tetrachlorobis(1H-indazole)ruthenate (III)] is isolated by filtration as what can best be described as a mud-like substance. The stability of this compound is improved by the presence of hydrochloric acid (chloride ions). Washing the filtrate with polar solvents (e.g. methanol) also lead to degradation. Therefore, the best practice is to prepare the indazolium trans-[tetrachlorobis(1H-indazole)ruthenate (III)], isolate by filtration, and use directly for S-2 without delay. S-2 consists of mixing indazolium trans-[tetrachlorobis(1H-indazole)ruthenate (III)] and cesium chloride in a suitable solvent. Suitable solvents can be alcohol with 1 to 5 carbon atoms, a diol with 2-4 carbon atoms, water, ketones with […], cyclic ethers containing 4 to 7 carbon atoms, amides with 1 to 4 carbon atoms, DMSO, sulfolane, esters with 4 to 6 carbon atoms, chlorinated hydrocarbons with 1 or 2 carbon atoms, liquid aromatic hydrocarbons, nitriles with 2-6 carbon atoms, or mixture of thereof.

[4] = 20° C. (room temperature), 0.5 h
[5] = 20° C. (room temperature), 18 h

[Cl][Ru-]([Cl])([Cl])[Cl].[Na+].c1ccc2[nH]ncc2c1.c1ccc2[nH]ncc2c1 [Formula I-b, sodium trans-[tetrachlorobis(1H-indazole)ruthenate (III)]]
% Peak Area RT 7.7 min ([1]; 4° C. (refrigerated), 0 h): 97.05% and 97.1%
% Peak Area RT 7.7 min ([1]; 4° C. (refrigerated), 0.5 h): 97.3%
% Peak Area RT 7.7 min ([1]; 4° C. (refrigerated), 1 h): 97.0%
% Peak Area RT 7.7 min ([1]; 4° C. (refrigerated), 2 h): 97.0%
% Peak Area RT 7.7 min ([1]; 4° C. (refrigerated), 3 h): 96.8%
% Peak Area RT 7.7 min ([1]; 4° C. (refrigerated), 4 h): 96.5%
% Peak Area RT 7.7 min ([1]; 4° C. (refrigerated), 5 h): 96.6%
% Peak Area RT 7.7 min ([1]; 4° C. (refrigerated), 6 h): 96.8%
% Peak Area RT 7.7 min ([1]; 4° C. (refrigerated), 18 h): 95.4%
% Peak Area RT 7.7 min ([1]; 4° C. (refrigerated), 24 h): 94.8%
% Peak Area RT 7.7 min ([1]; 4° C. (refrigerated), 32 h): 94.9%
% Peak Area RT 7.7 min ([1]; 4° C. (refrigerated), 48 h): 89.8%
% Peak Area RT 7.7 min ([1]; 20° C. (room temperature), 0 h): 96.8%
% Peak Area RT 7.7 min [1, 4]: 96.8%
% Peak Area RT 7.7 min ([1]; 20° C. (room temperature), 1 h): 96.5%
% Peak Area RT 7.7 min ([1]; 20° C. (room temperature), 2 h): 96.3%
% Peak Area RT 7.7 min ([1]; 20° C. (room temperature), 3 h): 95.9%
% Peak Area RT 7.7 min ([1]; 20° C. (room temperature), 4 h): 95.4%
% Peak Area RT 7.7 min ([1]; 20° C. (room temperature), 5 h): 94.9%
% Peak Area RT 7.7 min ([1]; 20° C. (room temperature), 6 h): 94.0%
% Peak Area RT 7.7 min [1, 5]: 12.1%
% Peak Area Unspecified ([1]; 4° C. (refrigerated), 0 h): <0.1%
% Peak Area Unspecified ([1]; 4° C. (refrigerated), 0.5 h): <0.1%
% Peak Area Unspecified ([1]; 4° C. (refrigerated), 1 h): <0.1%
% Peak Area Unspecified ([1]; 4° C. (refrigerated), 2 h): 0.14%
% Peak Area Unspecified ([1]; 4° C. (refrigerated), 3 h): 0.16%
% Peak Area Unspecified ([1]; 4° C. (refrigerated), 4 h): 0.26%
% Peak Area Unspecified ([1]; 4° C. (refrigerated), 5 h): <0.1%
% Peak Area Unspecified ([1]; 4° C. (refrigerated), 6 h): <0.1%
% Peak Area Unspecified ([1]; 4° C. (refrigerated), 18 h): 0.11%
% Peak Area Unspecified ([1]; 4° C. (refrigerated), 24 h): <0.1%
% Peak Area Unspecified ([1]; 4° C. (refrigerated), 32 h): <0.1%
% Peak Area Unspecified ([1]; 4° C. (refrigerated), 48 h): <0.1%
% Peak Area Unspecified ([1]; 20° C. (room temperature), 0 h): <0.1%
% Peak Area Unspecified [1, 4]: <0.1%
% Peak Area Unspecified ([1]; 20° C. (room temperature), 1 h): <0.1%
% Peak Area Unspecified ([1]; 20° C. (room temperature), 2 h): 0.13%
% Peak Area Unspecified ([1]; 20° C. (room temperature), 3 h): 0.16%
% Peak Area Unspecified ([1]; 20° C. (room temperature), 4 h): 0.25%
% Peak Area Unspecified ([1]; 20° C. (room temperature), 5 h): 0.26%
% Peak Area Unspecified ([1]; 20° C. (room temperature), 6 h): 0.13%
% Peak Area Unspecified [1, 5]: 1.82%
% Peak Area RRT 1.09 ([1]; 4° C. (refrigerated), 0 h): 0.96%
% Peak Area RRT 1.28 ([1]; 4° C. (refrigerated), 0 h): 1.91%
% Peak Area RRT 1.09 ([1]; 4° C. (refrigerated), 0.5 h): 0.96%
% Peak Area RRT 1.28 ([1]; 4° C. (refrigerated), 0.5 h): 1.7%
% Peak Area RRT 1.09 ([1]; 4° C. (refrigerated), 1 h): 1.03%
% Peak Area RRT 1.28 ([1]; 4° C. (refrigerated), 1 h): 1.9%
% Peak Area RRT 1.09 ([1]; 4° C. (refrigerated), 2 h): 1.04%
% Peak Area RRT 1.28 ([1]; 4° C. (refrigerated), 2 h): 1.86%
% Peak Area RRT 1.09 ([1]; 4° C. (refrigerated), 3 h): 1.07%
% Peak Area RRT 1.28 ([1]; 4° C. (refrigerated), 3 h): 0.94%
% Peak Area RRT 1.09 ([1]; 4° C. (refrigerated), 4 h): 1.13%
% Peak Area RRT 1.28 ([1]; 4° C. (refrigerated), 4 h): 2.14%
% Peak Area RRT 1.09 ([1]; 4° C. (refrigerated), 5 h): 1.11%
% Peak Area RRT 1.28 ([1]; 4° C. (refrigerated), 5 h): 2.2%
% Peak Area RRT 1.09 ([1]; 4° C. (refrigerated), 6 h): 1.09%
% Peak Area RRT 1.28 ([1]; 4° C. (refrigerated), 6 h): 2.07%
% Peak Area RRT 1.09 ([1]; 4° C. (refrigerated), 18 h): 1.45%
% Peak Area RRT 1.28 ([1]; 4° C. (refrigerated), 18 h): 3.07%
% Peak Area RRT 1.09 ([1]; 4° C. (refrigerated), 24 h): 1.34%
% Peak Area RRT 1.28 ([1]; 4° C. (refrigerated), 24 h): 3.76%
% Peak Area RRT 1.09 ([1]; 4° C. (refrigerated), 32 h): 1.33%
% Peak Area RRT 1.28 ([1]; 4° C. (refrigerated), 32 h): 3.65%
% Peak Area RRT 1.09 ([1]; 4° C. (refrigerated), 48 h): 2.39%
% Peak Area RRT 1.28 ([1]; 4° C. (refrigerated), 48 h): 7.56%
% Peak Area RRT 1.09 ([1]; 20° C. (room temperature), 0 h): 0.88%
% Peak Area RRT 1.28 ([1]; 20° C. (room temperature), 0 h): 2.26%
% Peak Area RRT 1.09 [1, 4]: 1.08%
% Peak Area RRT 1.28 [1, 4]: 2.07%
% Peak Area RRT 1.09 ([1]; 20° C. (room temperature), 1 h): 1.14%
% Peak Area RRT 1.28 ([1]; 20° C. (room temperature), 1 h): 2.28%
% Peak Area RRT 1.09 ([1]; 20° C. (room temperature), 2 h): 1.22%
% Peak Area RRT 1.28 ([1]; 20° C. (room temperature), 2 h): 2.34%
% Peak Area RRT 1.09 ([1]; 20° C. (room temperature), 3 h): 1.35%
% Peak Area RRT 1.28 ([1]; 20° C. (room temperature), 3 h): 2.55%
% Peak Area RRT 1.09 ([1]; 20° C. (room temperature), 4 h): 1.47%
% Peak Area RRT 1.28 ([1]; 20° C. (room temperature), 4 h): 2.89%
% Peak Area RRT 1.09 ([1]; 20° C. (room temperature), 5 h): 1.58%
% Peak Area RRT 1.28 ([1]; 20° C. (room temperature), 5 h): 3.27%
% Peak Area RRT 1.09 ([1]; 20° C. (room temperature), 6 h): 1.88%
% Peak Area RRT 1.28 ([1]; 20° C. (room temperature), 6 h): 4%
% Peak Area RRT 1.09 [1, 5]: 25.2%
% Peak Area RRT 1.28 [1, 5]: 60.87%
stability in solution [2]: much more stable

[Cl][Ru-3]([Cl])([Cl])([Cl])([n+]1cc2ccccc2[nH]1)[n+]1cc2ccccc2[nH]1.[Cs+] [Formula I-a, cesium trans-[tetrachlorobis(1H-indazole)ruthenate (III)]]
stability of the dry powder [3]: stable at ambient conditions
